Numbers after ± are expanded uncertainties.
Experiment: activity coefficient (dimensionless); of the first substance listed, at infinite dilution; xn = mol fraction of the nth substance listed
Details: 101 kPa, Liquid, Chromatography, x1 = 0

| activity coefficient (318.15 K) | activity coefficient (323.15 K) | activity coefficient (333.15 K) | activity coefficient (343.15 K) | activity coefficient (353.15 K) | activity coefficient (363.15 K) | activity coefficient (373.15 K) | Structure (SMILES) |
| --- | --- | --- | --- | --- | --- | --- | --- |
| 0.506 ± 0.031 | 0.524 ± 0.031 | 0.56 ± 0.032 | 0.594 ± 0.032 | 0.628 ± 0.033 |  |  | COCCOC [1,2-dimethoxyethane] + CCCC[N+]1(C)CCCC1.N#C[B-](C#N)(C#N)C#N |
|  |  | 1.16 ± 0.05 | 1.2 ± 0.06 | 1.23 ± 0.06 | 1.26 ± 0.06 | 1.29 ± 0.06 | COCCOC [1,2-dimethoxyethane] + CCCC[N+]1(C)CCCC1.O=C1O[B-]2(OC1=O)OC(=O)C(=O)O2 |
| 0.842 ± 0.039 | 0.869 ± 0.04 | 0.923 ± 0.041 | 0.977 ± 0.043 | 1.03 ± 0.05 |  |  | FC(F)(F)C(Cl)Br (stereo not given) [1-bromo-1-chloro-2,2,2-trifluoroethane] + CCCC[N+]1(C)CCCC1.N#C[B-](C#N)(C#N)C#N |
|  |  | 1.61 ± 0.08 | 1.66 ± 0.08 | 1.72 ± 0.09 | 1.77 ± 0.09 | 1.82 ± 0.09 | FC(F)(F)C(Cl)Br (stereo not given) [1-bromo-1-chloro-2,2,2-trifluoroethane] + CCCC[N+]1(C)CCCC1.O=C1O[B-]2(OC1=O)OC(=O)C(=O)O2 |
| 2.39 ± 0.12 | 2.41 ± 0.12 | 2.45 ± 0.13 | 2.48 ± 0.13 | 2.52 ± 0.13 |  |  | COC(C)(C)C [2-methoxy-2-methylpropane] + CCCC[N+]1(C)CCCC1.N#C[B-](C#N)(C#N)C#N |
|  |  | 6.34 ± 0.33 | 6.06 ± 0.31 | 5.87 ± 0.3 | 5.7 ± 0.29 | 5.57 ± 0.29 | COC(C)(C)C [2-methoxy-2-methylpropane] + CCCC[N+]1(C)CCCC1.O=C1O[B-]2(OC1=O)OC(=O)C(=O)O2 |
| 0.425 ± 0.029 | 0.426 ± 0.029 | 0.427 ± 0.029 | 0.429 ± 0.029 | 0.43 ± 0.029 |  |  | CC#N [acetonitrile] + CCCC[N+]1(C)CCCC1.N#C[B-](C#N)(C#N)C#N |
|  |  | 0.509 ± 0.031 | 0.512 ± 0.031 | 0.514 ± 0.031 | 0.516 ± 0.031 | 0.517 ± 0.031 | CC#N [acetonitrile] + CCCC[N+]1(C)CCCC1.O=C1O[B-]2(OC1=O)OC(=O)C(=O)O2 |
| 0.833 ± 0.039 | 0.841 ± 0.039 | 0.858 ± 0.039 | 0.874 ± 0.04 | 0.891 ± 0.04 |  |  | c1ccccc1 [benzene] + CCCC[N+]1(C)CCCC1.N#C[B-](C#N)(C#N)C#N |
|  |  | 1.65 ± 0.08 | 1.63 ± 0.08 | 1.61 ± 0.08 | 1.6 ± 0.08 | 1.59 ± 0.08 | c1ccccc1 [benzene] + CCCC[N+]1(C)CCCC1.O=C1O[B-]2(OC1=O)OC(=O)C(=O)O2 |
| 8.51 ± 0.44 | 8.26 ± 0.43 | 7.83 ± 0.4 | 7.44 ± 0.38 | 7.11 ± 0.37 |  |  | C1CCCCC1 [cyclohexane] + CCCC[N+]1(C)CCCC1.N#C[B-](C#N)(C#N)C#N |
|  |  | 20.2 ± 1 | 17.9 ± 0.9 | 16.2 ± 0.8 | 14.7 ± 0.8 | 13.6 ± 0.7 | C1CCCCC1 [cyclohexane] + CCCC[N+]1(C)CCCC1.O=C1O[B-]2(OC1=O)OC(=O)C(=O)O2 |
| 0.536 ± 0.031 | 0.542 ± 0.031 | 0.59 ± 0.03 | 0.574 ± 0.032 | 0.59 ± 0.032 |  |  | ClCCl [dichloromethane] + CCCC[N+]1(C)CCCC1.N#C[B-](C#N)(C#N)C#N |
|  |  | 0.745 ± 0.036 | 0.76 ± 0.037 | 0.774 ± 0.037 | 0.789 ± 0.037 | 0.803 ± 0.038 | ClCCl [dichloromethane] + CCCC[N+]1(C)CCCC1.O=C1O[B-]2(OC1=O)OC(=O)C(=O)O2 |
| 5.87 ± 0.3 | 5.88 ± 0.3 | 5.86 ± 0.3 | 5.85 ± 0.3 | 5.84 ± 0.3 |  |  | CC(C)OC(C)C [diisopropyl ether] + CCCC[N+]1(C)CCCC1.N#C[B-](C#N)(C#N)C#N |
|  |  | 18.4 ± 1 | 17 ± 0.9 | 16 ± 0.8 | 15.1 ± 0.8 | 14.4 ± 0.7 | CC(C)OC(C)C [diisopropyl ether] + CCCC[N+]1(C)CCCC1.O=C1O[B-]2(OC1=O)OC(=O)C(=O)O2 |

| activity coefficient (318.15 K) | activity coefficient (323.15 K) | activity coefficient (333.15 K) | activity coefficient (343.15 K) | activity coefficient (353.15 K) | activity coefficient (363.15 K) | activity coefficient (373.15 K) | Structure (SMILES) |
| --- | --- | --- | --- | --- | --- | --- | --- |
| 0.522 ± 0.031 | 0.529 ± 0.031 | 0.543 ± 0.031 | 0.556 ± 0.032 | 0.57 ± 0.032 |  |  | COC(=O)OC [dimethyl carbonate] + CCCC[N+]1(C)CCCC1.N#C[B-](C#N)(C#N)C#N |
|  |  | 0.853 ± 0.039 | 0.861 ± 0.039 | 0.87 ± 0.04 | 0.877 ± 0.04 | 0.884 ± 0.04 | COC(=O)OC [dimethyl carbonate] + CCCC[N+]1(C)CCCC1.O=C1O[B-]2(OC1=O)OC(=O)C(=O)O2 |
| 1.32 ± 0.06 | 1.27 ± 0.06 | 1.17 ± 0.05 | 1.09 ± 0.05 | 1.02 ± 0.05 |  |  | CCO [ethanol] + CCCC[N+]1(C)CCCC1.N#C[B-](C#N)(C#N)C#N |
|  |  | 1.92 ± 0.1 | 1.75 ± 0.09 | 1.61 ± 0.08 | 1.49 ± 0.07 | 1.38 ± 0.07 | CCO [ethanol] + CCCC[N+]1(C)CCCC1.O=C1O[B-]2(OC1=O)OC(=O)C(=O)O2 |
| 0.942 ± 0.042 | 0.949 ± 0.042 | 0.967 ± 0.043 | 0.982 ± 0.043 | 1 ± 0.04 |  |  | CCOC(C)=O [ethyl acetate] + CCCC[N+]1(C)CCCC1.N#C[B-](C#N)(C#N)C#N |
|  |  | 1.75 ± 0.09 | 1.74 ± 0.09 | 1.74 ± 0.09 | 1.73 ± 0.09 | 1.73 ± 0.09 | CCOC(C)=O [ethyl acetate] + CCCC[N+]1(C)CCCC1.O=C1O[B-]2(OC1=O)OC(=O)C(=O)O2 |
| 1.65 ± 0.08 | 1.66 ± 0.08 | 1.68 ± 0.08 | 1.71 ± 0.09 | 1.73 ± 0.09 |  |  | CCc1ccccc1 [ethylbenzene] + CCCC[N+]1(C)CCCC1.N#C[B-](C#N)(C#N)C#N |
|  |  | 3.97 ± 0.2 | 3.85 ± 0.2 | 3.74 ± 0.19 | 3.65 ± 0.19 | 3.56 ± 0.18 | CCc1ccccc1 [ethylbenzene] + CCCC[N+]1(C)CCCC1.O=C1O[B-]2(OC1=O)OC(=O)C(=O)O2 |
| 17.6 ± 0.9 | 17 ± 0.9 | 15.8 ± 0.8 | 14.8 ± 0.8 | 13.9 ± 0.7 |  |  | CCC1CCCCC1 [ethylcyclohexane] + CCCC[N+]1(C)CCCC1.N#C[B-](C#N)(C#N)C#N |
|  |  | 41.8 ± 2.2 | 36.9 ± 1.9 | 33 ± 1.7 | 29.7 ± 1.5 | 27 ± 1.4 | CCC1CCCCC1 [ethylcyclohexane] + CCCC[N+]1(C)CCCC1.O=C1O[B-]2(OC1=O)OC(=O)C(=O)O2 |
| 23.2 ± 1.2 | 22.4 ± 1.2 | 20.9 ± 1.1 | 19.7 ± 1 | 18.5 ± 1 |  |  | CCCCCCC [heptane] + CCCC[N+]1(C)CCCC1.N#C[B-](C#N)(C#N)C#N |
|  |  | 62.9 ± 3.3 | 55.4 ± 2.9 | 49.5 ± 2.6 | 44.7 ± 2.3 | 40.8 ± 2.1 | CCCCCCC [heptane] + CCCC[N+]1(C)CCCC1.O=C1O[B-]2(OC1=O)OC(=O)C(=O)O2 |
| 1.03 ± 0.05 | 0.992 ± 0.043 | 0.931 ± 0.042 | 0.878 ± 0.04 | 0.831 ± 0.039 |  |  | CO [methanol] + CCCC[N+]1(C)CCCC1.N#C[B-](C#N)(C#N)C#N |
|  |  | 1.27 ± 0.06 | 1.19 ± 0.05 | 1.11 ± 0.05 | 1.05 ± 0.05 | 0.99 ± 0.043 | CO [methanol] + CCCC[N+]1(C)CCCC1.O=C1O[B-]2(OC1=O)OC(=O)C(=O)O2 |
| 0.671 ± 0.034 | 0.678 ± 0.034 | 0.693 ± 0.035 | 0.708 ± 0.035 | 0.724 ± 0.036 |  |  | COC(C)=O [methyl ethanoate] + CCCC[N+]1(C)CCCC1.N#C[B-](C#N)(C#N)C#N |

| Structure (SMILES) | activity coefficient (318.15 K) | activity coefficient (323.15 K) | activity coefficient (333.15 K) | activity coefficient (343.15 K) | activity coefficient (353.15 K) | activity coefficient (363.15 K) | activity coefficient (373.15 K) |
| --- | --- | --- | --- | --- | --- | --- | --- |
| Cc1cccc(C)c1 [1,3-dimethylbenzene] + CCCC[N+]1(C)CCCC1.N#C[B-](C#N)(C#N)C#N | 1.63 ± 0.08 | 1.64 ± 0.08 | 1.66 ± 0.08 | 1.69 ± 0.08 | 1.72 ± 0.09 |  |  |
| Cc1cccc(C)c1 [1,3-dimethylbenzene] + CCCC[N+]1(C)CCCC1.O=C1O[B-]2(OC1=O)OC(=O)C(=O)O2 |  |  | 3.96 ± 0.2 | 3.84 ± 0.2 | 3.73 ± 0.19 | 3.64 ± 0.19 | 3.55 ± 0.18 |
| CC(C)=O [acetone] + CCCC[N+]1(C)CCCC1.N#C[B-](C#N)(C#N)C#N | 0.445 ± 0.03 | 0.45 ± 0.03 | 0.461 ± 0.03 | 0.471 ± 0.03 | 0.481 ± 0.03 |  |  |
| CC(C)=O [acetone] + CCCC[N+]1(C)CCCC1.O=C1O[B-]2(OC1=O)OC(=O)C(=O)O2 |  |  | 0.762 ± 0.037 | 0.767 ± 0.037 | 0.773 ± 0.037 | 0.778 ± 0.037 | 0.784 ± 0.037 |
| CCC(C)=O [butanone] + CCCC[N+]1(C)CCCC1.N#C[B-](C#N)(C#N)C#N | 0.546 ± 0.031 | 0.551 ± 0.031 | 0.564 ± 0.032 | 0.575 ± 0.032 | 0.588 ± 0.032 |  |  |
| CCC(C)=O [butanone] + CCCC[N+]1(C)CCCC1.O=C1O[B-]2(OC1=O)OC(=O)C(=O)O2 |  |  | 1.13 ± 0.05 | 1.12 ± 0.05 | 1.11 ± 0.05 | 1.11 ± 0.05 | 1.1 ± 0.05 |

From the NIST ThermoML archive (doi:10.1016/j.jct.2012.09.017)
